# From paper PMC7409209, “Biosynthesis and Antimicrobial Activity of Pseudodesmin and Viscosinamide Cyclic Lipopeptides Produced by Pseudomonads Associated with the Cocoyam Rhizosphere” (Microorganisms, 2020)
# Key:
# [1] = system: R. solani AG2-2 CuHav-Rs18; assay: Fungal plug-CLP droplet assay (growth inhibition and microscopy); format: cell-based
# Source text: (§1) The cocoyam rhizosphere isolate, P. myriotylum CMR1 [42], was maintained on Potato Dextrose Agar (PDA) for three days prior to use. The bean root rot pathogen, R. solani AG2-2 CuHav-Rs18 [43], was maintained on the same media for four days before use. The fungal plug-CLP method was used. Sterile microscopic glass slides were covered with a thin, flat layer of water agar (Bacto agar; Difco) and placed in a plastic Petri dish containing a moist sterile filter paper. An agar plug (diameter = 5 mm) taken from an actively growing colony of R. solani or P. myriotylum and placed on top at the center of each glass slide. Stock solutions of purified CLPs were made by dissolution in Dimethyl sulfoxide (DMSO). Serial dilutions of […], 1 µM, 10 µM, 25 µM and 50 µM were prepared using sterile milliQ water. For each dilution, two droplets (15 μL each) of purified CLP (WLIP, pseudodesmin or viscosinamide) were placed on two sides of the glass slide (about 2 cm from the fungal plug). For the control treatment, 0.5% DMSO was used. All plates were incubated for 48 h (P. myriotylum) or 72 h (R. solani) at 28 °C before evaluation under an Olympus BX51 microscope. The images were processed using TopView software. Using a vernier caliper, the inhibition zones were measured as the distance between the CLP droplet and the growing edge of the pathogen. The growth inhibition effect of pure compounds towards both plant pathogens was expressed relative to the mycelial growth in the control. Five replicates of each slide were used. Representative photos are shown.
# [2] = system: six Gram-positive bacterial strains; settings: cited from earlier work
# Source text: Viscosinamide and pseudodesmin CLPs are neutral, have similar amino acid (AA) composition and only differ from each other by the stereochemistry on the 5th AA [30]. […] A recent study tested the antibacterial activity of 20 novel synthesized pseudodesmin A analogs and reported a mode of action determined by the macrocycle closed by an ester bond and the critical length of the β-OH fatty acid chain capping the N-terminus.
# P. myriotylum CMR1 = assay: Fungal plug-CLP droplet assay (growth inhibition and microscopy); format: cell-based, Pythium myriotylum; settings: for Effect on growth of P. myriotylum mycelium (inhibition zone): all concentrations tested (100 nM, 1, 10, 25, 50 µM), 48 h, 28 °C, n = 5
# Source text: as §1
# Pythium ultimum = settings: cited from earlier work
# Source text: (§2) Antimicrobial activities of Viscosin-group CLPs have been reported, including antibacterial activity. […] When challenged with viscosinamide, cellular changes were detected in the mycelia of both P. ultimum and R. solani.
# R. solani [3] = settings: cited from earlier work
# Source text: as §2
# P. myriotylum = assay: Pathogen perception experiment (one CLP droplet); format: cell-based, Pythium myriotylum; settings: one 15 µL CLP droplet 2 cm from the plug, other side blank
# Protocol: (§3) For pathogen perception experiments, the afore-described plug-CLP droplet method was employed with slight modifications. Only one 15 µL CLP droplet was introduced 2 cm away from the fungal plug, while the other side of the plug remained blank. Results were assessed by observing whether or not the pathogen only grew towards the CLP droplet or in both directions. Pathogen-CLP interaction was evaluated microscopically and pictures were taken.
# R. solani [4] = assay: Pathogen perception experiment (one CLP droplet); format: cell-based; settings: one 15 µL CLP droplet 2 cm from the plug, other side blank
# Protocol: as §3
# [5] = purified viscosinamide produced by P. fluorescens DR54
substance,measurement,setting,value
pseudodesmin A,"Visual inhibition zone, R. solani AG 2-2","[1]; 100 nM, 72 h, 28 °C",visual inhibition zone
same,Hyphal morphology of R. solani (microscopy),"[1]; 0.1, 1, 10, 25 and 50 µM","CLP evasion by the pathogen, hyphae distortion and the disintegration of hyphae with debris observed on the slide"
same,"Visual inhibition zone, R. solani AG 2-2","[1]; higher concentrations of 1, 10, 25 and 50 µM, compared with 100 nM",became enhanced
same,"Antibacterial activity, pseudodesmin compared with viscosinamide",[2],equal activity
same,Hyphal morphology of P. myriotylum (microscopy),"P. myriotylum CMR1; 100 nM, 10 µM and 25 µM","increased/hyper branching, hyphal distortion and CLP evasion"
same,Effect on growth of P. myriotylum mycelium (inhibition zone),P. myriotylum CMR1,significantly inhibited pathogen growth
viscosinamide A,Hyphal morphology of R. solani (microscopy),[1]; 50 µM,mycelia distortion and disintegration was observed in combination with a coordinated formation of melanized structures by multiple primary hyphae
same,"Visual inhibition zone, R. solani AG 2-2",[1]; all concentrations tested (100 nM-50 µM),no visual inhibition zone was observed in treatments with viscosinamide except at 10 µM
same,Hyphal morphology of R. solani (microscopy),[1]; all concentrations tested except 50 µM,"CLP evasion, hyphal distortion and the rupturing of contents"
same,"Antibacterial activity, pseudodesmin compared with viscosinamide",[2],equal activity
same,Cellular changes in mycelia of P. ultimum,Pythium ultimum; fluorescent stains,"extensive branching, increased hyphal septation and swelling and decreased the hydrophobicity of cell walls and membranes"
same,Effect on growth of Pythium ultimum,Pythium ultimum; [5],reduced fungal growth and the aerial mycelium development
same,Cellular changes in mycelia of R. solani,R. solani [3]; fluorescent stains,"extensive branching, increased hyphal septation and swelling and decreased the hydrophobicity of cell walls and membranes"
same,Effect on growth of R. solani,R. solani [3]; [5],reduced fungal growth and the aerial mycelium development
same,Hyphal morphology of P. myriotylum (microscopy),P. myriotylum CMR1; 50 µM,enhanced elongation of primary mycelium and the formation of convergent structures by mycelia
same,Effect on growth of P. myriotylum mycelium (inhibition zone),P. myriotylum CMR1,enhanced the growth of P. myriotylum mycelium without any visible inhibition zone
"White Line-Inducing Principle [WLIP, reference compound]","Visual inhibition zone, R. solani AG 2-2","[1]; 100 nM, 72 h, 28 °C",slight inhibition zone
same,"Visual inhibition zone, R. solani AG 2-2",[1]; highest concentration (50 µM),strong inhibition
same,Hyphal morphology of R. solani (microscopy),"[1]; hyphae growing towards the compound, concentration not specified",increased branching as they grew in the direction of the compound
same,"Visual inhibition zone, R. solani AG 2-2",[1]; intermediate concentrations,unclear
same,Hyphal morphology of R. solani (microscopy),"[1]; upon contact with the compound, concentration not specified",disintegration of hyphae was observed
same,Perception of the CLP by P. myriotylum (direction of growth),P. myriotylum,grew evenly on sides with or without the CLP
same,Perception of the CLP by R. solani (direction of growth),R. solani [4],appeared not to recognize WLIP but grew towards it until hyphal disintegration occurred
same,Effect on growth of P. myriotylum mycelium (inhibition zone),P. myriotylum CMR1,visual inhibition zones that could not be easily measured
same,Hyphal morphology of P. myriotylum (microscopy),P. myriotylum CMR1; concentration not specified,"hyphal disintegration, timely evasion and an absence of branching"
